Reference: paper PMC6842947, “Enhanced Antiviral Activity of Human Surfactant Protein D by Site-Specific Engineering of the Carbohydrate Recognition Domain” (Frontiers in Immunology, 2019)

Key:
Assay in all cases: Saccharide competition of SP-D binding to BSA-mannan coated plates
iSP-D = target: T1, iSP-D (Homo sapiens, UniProt P35247, D344N/D350N/E309K/INS346GSS/K307Q/V271E)
T1 construct: Full-length recombinant iSP-D was generated based upon the full-length hSP-D cDNA clone; made in house; host or cells: HEK293 (HEK293E, transient transfection)
T1 sequence (P35247 with tags, fused parts or gaps V271E/K307Q/E309K/D344N/INS346GSS/D350N): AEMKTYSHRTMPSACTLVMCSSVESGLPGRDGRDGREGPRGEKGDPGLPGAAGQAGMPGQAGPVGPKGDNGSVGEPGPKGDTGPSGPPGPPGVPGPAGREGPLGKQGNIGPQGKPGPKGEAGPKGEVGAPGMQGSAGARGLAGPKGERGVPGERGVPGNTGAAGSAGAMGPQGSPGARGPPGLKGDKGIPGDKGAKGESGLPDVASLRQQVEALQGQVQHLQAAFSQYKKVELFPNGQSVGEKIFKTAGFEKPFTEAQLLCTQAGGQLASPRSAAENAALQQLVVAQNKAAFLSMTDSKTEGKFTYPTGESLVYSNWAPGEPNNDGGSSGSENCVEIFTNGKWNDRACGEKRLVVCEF

pSP-D = target: T2, pSP-D (Sus scrofa, UniProt Q9N1X4); design: species or system porcine
T2 sequence (Q9N1X4 21-378): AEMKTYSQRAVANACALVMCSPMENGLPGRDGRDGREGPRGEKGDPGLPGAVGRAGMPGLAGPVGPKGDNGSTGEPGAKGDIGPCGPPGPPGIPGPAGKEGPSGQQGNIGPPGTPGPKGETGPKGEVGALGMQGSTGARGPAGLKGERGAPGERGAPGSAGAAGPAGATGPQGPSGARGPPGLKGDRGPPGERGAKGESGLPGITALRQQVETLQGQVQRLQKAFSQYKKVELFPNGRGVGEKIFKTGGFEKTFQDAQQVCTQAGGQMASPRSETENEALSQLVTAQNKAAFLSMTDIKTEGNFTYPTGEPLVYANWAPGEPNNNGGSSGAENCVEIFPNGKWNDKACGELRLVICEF

hSP-D = target: T3, hSP-D (Homo sapiens, UniProt P35247)
T3 construct: The full-length recombinant collectins pSP-D and hSP-D were constructed as published; made in house; host or cells: HEK293 (HEK293E, transient transfection)
T3 sequence (P35247 21-375): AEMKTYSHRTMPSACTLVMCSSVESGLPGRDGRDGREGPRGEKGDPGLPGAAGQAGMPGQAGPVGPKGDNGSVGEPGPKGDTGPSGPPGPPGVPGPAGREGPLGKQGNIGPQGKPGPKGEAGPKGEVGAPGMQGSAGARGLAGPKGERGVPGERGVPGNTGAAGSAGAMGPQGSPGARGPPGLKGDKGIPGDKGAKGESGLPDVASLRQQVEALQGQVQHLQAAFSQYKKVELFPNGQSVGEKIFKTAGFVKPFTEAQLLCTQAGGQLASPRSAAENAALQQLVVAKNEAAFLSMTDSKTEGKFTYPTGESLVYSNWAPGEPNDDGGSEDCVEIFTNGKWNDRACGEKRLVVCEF

SMILES: O=C(CO)[C@@H](O)[C@H](O)[C@H](O)CO [Fructose, fructose]
- IC50 (iSP-D): 4.8 mM
- IC50 (pSP-D): 2.8 mM
- IC50 (hSP-D): 3.1 mM

SMILES: O=C[C@H](O)[C@@H](O)[C@@H](O)[C@H](O)CO [D-Galactose, D-galactose]
- IC50 (iSP-D): 13.6 mM
- IC50 (pSP-D): 6.5 mM
- IC50 (hSP-D): 13.5 mM

SMILES: CC(=O)N[C@@H]1C(O)O[C@H](CO)[C@@H](O)[C@@H]1O (stereo partly shown) [ManNAc, N-acetylmannosamine]
- IC50 (iSP-D): 3.1 mM
- IC50 (pSP-D): 8 mM
- IC50 (hSP-D): 2.2 mM

SMILES: O[C@H]1[C@H](O)[C@@H](O)[C@H](O)[C@@H](O)[C@H]1O [Myo-Inositol, myo-inositol]
- IC50-value with iSP-D as compared to hSP-D (iSP-D; ratio of IC50 for inhibition of binding to BSA-mannan): three times higher

SMILES: OC[C@H]1OC(O)[C@H](O)[C@@H](O)[C@@H]1O (stereo partly drawn) [D-Glucose, D-glucose]
- IC50 (iSP-D): 7.8 mM
- IC50 (pSP-D): 2.8 mM
- IC50 (hSP-D): 4.6 mM
